Reference: article PMC6803969, “Pharmacokinetic Profiling and Simultaneous Determination of Thiopurine Immunosuppressants and Folic Acid by Chromatographic Methods” (Molecules, 2019)

Legend:
[1] = RP-TLC hydrophobicity assay (RP-18 plates, methanol/phosphate-buffered saline); type: physicochemical; settings: extrapolated to pure phosphate-buffered saline
Method: In reversed-phase chromatography, retention of analytes is governed by hydrophobicity, and this parameter was evaluated using both TLC and HPLC techniques. Due to high affinity of investigated compounds for octadecylsilane chemically bonded to porous silica applied on chromatographic plates, several analyses with mixtures of phosphate-buffered saline with various concentrations of methanol as mobile phase were performed. […] RM values were obtained according to Equation (1):(1) RM=log(1/RF−1), where RF represents the retention factor. Furthermore, chromatographic parameter of hydrophobicity, RMw, was obtained by extrapolation to pure buffer using the linear Equation (2):(2) RM = RMw − SΦ, where S is the slope of the regression line and φ is the concentration (expressed as volume fraction) of methanol.
TLC experiments were performed on commercially available 10 × 10 cm RP-18 TLC plates (Merck, Darmstadt, Germany). Methanol-phosphate-buffered saline mixtures were used as mobile phases. The methanol volume fraction was varied from 20% to 80% in 5% steps. A sufficient amount of mobile phase was placed in a Camag flat-bottom chamber for 10 × 10 cm plates with a stainless-steel lid to have a level of 5 mm. After saturation of chambers with solvent vapor for 30 min, the plates were developed to a distance of 9 cm at room temperature, dried in open air for 5 min and visualized under λ = 254 nm UV light.

[2] = target: human serum albumin (HSA) (Homo sapiens, UniProt P02768); assay: Protein binding assay, HSA-HPLC (Chiralpak-HSA column); type: in vitro ADME; settings: phosphate buffer pH 7.0/iso-propanol gradient, 25 °C
Method: (§1) In this study, the gradient retention times are standardized using a calibration set of compounds with known percentage of plasma protein binding data (PPBlit).
(§2) Validation of the methods was performed by evaluation of retention of warfarin enantiomers. As retention time on HSA and AGP columns is dependent on the injected amount of compound, the smallest possible amount of sample was injected so that the compound would not saturate the specific binding site.
(§3) The interactions of analytes with plasma proteins human serum albumin (HSA) and α1-acid glycoprotein (AGP) have been measured using commercially available chemically bonded HSA (Chiralpak-HSA, 50 × 4.6 mm, 5 μm particle size) and AGP (Chiralpak-AGP, 50 × 4.6 mm, 5 μm particle size) columns obtained by ChromTech (Cedex, France). The mobile phase consisted of 20 mM potassium phosphate buffer with the pH adjusted to 7.0 (A) and iso-propanol (B). The gradient program was as follows: 0–3 min, linear gradient 0–30% B, 3–10 min, isocratic 30% B. The total run time was 15 min to allow re-equilibration of the protein phase with the buffer. Injection volume was set at 10 µL, and the measurements were carried out at 25.0 ± 0.1 °C and at flow rate 1.5 mL/min. The absorbance of the analytes during a chromatographic run was collected at the following wavelengths: 250, 280, 300, 320 and 340 nm.

[3] = RP-HPLC hydrophobicity assay (Symmetry C18 column, methanol/phosphate-buffered saline); type: physicochemical; settings: extrapolated to pure phosphate-buffered saline, 25 °C
Description: The obtained retention times, tR, were used to calculate log k values according to Equation (3): (3) logk=logtR−t0/t0, with t0 being the retention time of an unretained solute, sodium nitrate. Furthermore, chromatographic parameter of hydrophobicity, log kw C18, was obtained by extrapolation to pure buffer using the linear Equation (4):(4) logk = logkw − SΦ, where S is the slope of the regression line and φ is the concentration (expressed as volume fraction) of methanol.
Hydrophobicity of the compounds was also studied on a reversed-phase Symmetry C18 column (150 × 4.6 mm, 3.5 µm particle size) obtained by Waters (Milford, MA, USA). Methanol-phosphate-buffered saline mixtures were used as mobile phases. The methanol volume fraction was varied from 10% to 50% in 5% steps. Each mobile phase was shaken vigorously, filtrated through cellulose nitrate filter (0.45 μm, Sartorius, Goettingen, Germany) and degassed by sonication (5 min) before use.

[4] = Phospholipid binding assay (IAM-HPLC, IAM.PC.DD2 column); type: physicochemical; settings: for log kw IAM, chromatographic parameter of lipophilicity obtained by IAM-HPLC: phosphate-buffered saline pH 7.4 without organic modifier, 25 °C
Method: The binding of compounds to the immobilized artificial membrane (IAM) was measured using commercially available immobilized phosphatidylcholine columns (IAM.PC.DD2, 100 x 4.6 mm, […]) obtained by Regis Technologies (Morton Grove, IL, USA). The mobile phase consisted of phosphate-buffered saline that was filtrated through cellulose nitrate filter and degassed (5 min) by sonication before use.

[5] = tested on: α1-acid glycoprotein (AGP); assay: Protein binding assay, AGP-HPLC (Chiralpak-AGP column); settings: phosphate buffer pH 7.0/iso-propanol gradient, 25 °C
Method: as §1, §2, §3

[6] = Extraction solvent evaluation / solubility; type: physicochemical
Method: Protocols utilizing aqueous or organic solvent extraction solutions (acidic, alkaline or neutral pH) combined with at ambient and elevated temperatures shaking and sonication procedures have all been reported. Therefore, one-variable-at-a-time method was applied to find a ubiquitous method suitable for all investigated analytes. […] Folic acid in solution is known to decompose when exposed to ultraviolet light and/or increased temperature; thus, all experiments were performed at ambient temperature using amber laboratory glassware.

[7] = higher levels of NaOH than 0.02 M (0.05 M and 0.1 M)

Sequence of human serum albumin (HSA) (P02768 25-609): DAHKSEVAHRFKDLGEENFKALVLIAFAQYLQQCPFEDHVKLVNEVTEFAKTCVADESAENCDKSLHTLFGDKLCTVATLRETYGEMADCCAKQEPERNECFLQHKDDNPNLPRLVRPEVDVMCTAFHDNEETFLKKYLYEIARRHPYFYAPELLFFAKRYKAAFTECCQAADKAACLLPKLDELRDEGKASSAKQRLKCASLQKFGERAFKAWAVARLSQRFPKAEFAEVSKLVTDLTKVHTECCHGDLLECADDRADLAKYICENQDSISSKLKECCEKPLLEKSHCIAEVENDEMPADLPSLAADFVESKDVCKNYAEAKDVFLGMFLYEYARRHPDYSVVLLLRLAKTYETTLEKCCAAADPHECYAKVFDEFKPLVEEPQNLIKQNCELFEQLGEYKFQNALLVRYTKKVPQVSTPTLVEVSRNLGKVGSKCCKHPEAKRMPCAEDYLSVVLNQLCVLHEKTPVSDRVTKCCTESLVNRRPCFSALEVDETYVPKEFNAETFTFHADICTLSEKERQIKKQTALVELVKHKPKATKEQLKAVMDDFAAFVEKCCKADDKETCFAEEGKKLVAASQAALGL

| RMw, chromatographic parameter of hydrophobicity obtained by RP-TLC [1] | PPBHSA, percentage of analyte bound to human serum albumin (HSA) obtained by HSA-HPLC [2] [%] | log kw C18, chromatographic parameter of hydrophobicity obtained by RP-HPLC [3] | log kw IAM, chromatographic parameter of lipophilicity obtained by IAM-HPLC [4] | PPBAGP, percentage of analyte bound to α1-acid glycoprotein (AGP) obtained by AGP-HPLC [5] [%] | difference between log kw C18 and log kw IAM values [4] | solubility ([6]; in basic aqueous solutions) | extraction efficiency ([6]; in methanol) [%] | solubility ([6]; in organic solvents as well as in water) | extraction efficiency ([6]; in water) [%] | stability in NaOH extraction solution [7] | Structure (SMILES) |
| --- | --- | --- | --- | --- | --- | --- | --- | --- | --- | --- | --- |
| 0.21 | 24.11 | 0.32 | 0.03 | 45.96 |  |  |  |  |  |  | Nc1nc2nc[nH]c2c(=S)[nH]1 [6-thioguanine] |
| 0.57 | 69.40 | 0.99 | −0.26 | 3.45 | 1.25 | soluble in basic aqueous solutions | 4.6 | slightly soluble | 22.4 |  | Nc1nc2ncc(CNc3ccc(C(=O)N[C@@H](CCC(=O)O)C(=O)O)cc3)nc2c(=O)[nH]1 [Folic acid, folic acid] |
| 0.23 |  | 0.45 | −0.19 | 22.15 |  |  |  |  |  |  | Sc1ncnc2nc[nH]c12 [6-mercaptopurine] |
| 1.41 | 49.22 | 1.34 | 0.68 | 75.96 |  |  |  |  |  | degradation | Cn1cnc([N+](=O)[O-])c1Sc1ncnc2nc[nH]c12 [Azathioprine, azathioprine] |
